Test [1] concerns GREB1, AGR3 transcription in T47D, EFM-19, HCC1500. Put plainly: ER pathway activity, RT-QPCR of GREB1 and AGR3. Format: cell-based, human. Particulars: 1 μM, 1 nM E2, 24 h. Here is the method: HCC1500, T47D, and EFM-19 were cultured in hormone deprivation media with 10% charcoal-stripped FBS for at least 3 days before assay. Trypsinized cells were seeded in a 12-well plate, stimulated with 1 nM E2, and treated with/without 1 μM compounds for 24 h. Total RNA was extracted using QIAGEN RNeasy Plus Mini Kit (Qiagen), according to the manufacturer’s protocol. The concentration of RNA samples was determined using NanoDrop 8000 (Thermo Scientific). SYBR Green expression assay (Qiagen#204154) was used to quantify GREB1 (Forward primer: […]; reverse primer: […]), AGR3 (Forward primer: […]; reverse primer: […]) and the house-keeping genes actin (OriGene#HP204660). The relative quantities were determined using ΔΔ threshold cycle (ΔΔCt), according to the manufacturer’s instructions (Applied Biosystems).
MCF7 with hormone-deprived pre-treatment were administrated ER ligands or not present with 1 nM E2 stimulation for 24 h incubation in a 12-well plate. Total mRNA was isolated from treated cells and sequenced on an Illumina HiSeq X Ten platform. FPKM of each gene was calculated using Cufflinks and Differential expression genes analysis by using the DESeq (2012) R package. Four separate clusters were obtained. […] Endometrial height was assessed from the basement membrane to the luminal border (scale bar in green lines: 200 μm), Arrows indicate the uterine epithelium (e).

The next test has as its target T1, ERα Y537S mutant (Homo sapiens, UniProt P03372, Y537S).
T1 construct: MCF-7 wild type and Y537S mutant cells were seeded; host or cells: MCF7 expressing ER Y537S
T1 sequence (P03372 1-595 Y537S): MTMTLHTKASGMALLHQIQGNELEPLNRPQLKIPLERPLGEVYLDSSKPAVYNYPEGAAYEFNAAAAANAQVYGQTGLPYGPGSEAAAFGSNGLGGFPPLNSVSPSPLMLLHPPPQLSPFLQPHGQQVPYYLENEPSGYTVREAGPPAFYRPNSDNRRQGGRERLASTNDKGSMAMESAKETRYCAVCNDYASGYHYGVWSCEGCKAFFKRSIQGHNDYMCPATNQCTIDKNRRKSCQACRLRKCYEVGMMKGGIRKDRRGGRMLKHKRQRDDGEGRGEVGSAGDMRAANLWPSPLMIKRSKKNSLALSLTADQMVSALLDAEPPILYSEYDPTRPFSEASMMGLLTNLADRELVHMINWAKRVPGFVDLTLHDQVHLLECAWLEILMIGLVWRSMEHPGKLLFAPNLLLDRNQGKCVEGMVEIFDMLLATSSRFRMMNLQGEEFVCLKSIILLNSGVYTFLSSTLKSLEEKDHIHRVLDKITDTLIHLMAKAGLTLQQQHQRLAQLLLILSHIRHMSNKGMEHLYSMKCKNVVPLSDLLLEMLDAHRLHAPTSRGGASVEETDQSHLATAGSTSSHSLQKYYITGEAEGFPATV
Description: ERα degradation assay, In-Cell Western, MCF-7 Y537S. Format: cell-based. Particulars: 24 h. Here is the method: MCF-7 wild type and Y537S mutant cells were seeded at a density of 5000 cells per well into flat clear bottom tissue cultured-treated 384-well plates (Greiner) in culture media and after overnight incubation cells were treated with compounds for 24 h. Then plates were fixed with 4% formaldehyde, permeabilized with ice-cold methanol, and blocked with Odyssey Blocking Buffer (LI-COR). The fixed cells were incubated with rabbit anti- ERα antibody (CST#8644S) and mouse anti-GAPDH antibody (Abcam #ab8245), washed and stained with IRDye 800 Goat anti-Rabbit IgG (Licor#926-32211) and IRDye 680 Goat anti-Mouse IgG (Licor#926-68070). ERα levels were quantitated using Sapphire RGBNIR (Azure), the acumen eX3 imaging system. […] IC50 and Emax were analyzed with IDBS XLfit.

Another test concerns T47D subcutaneous tumors. Put plainly: T47D subcutaneous xenograft mouse model. Type of test: in vivo. The conditions noted are these: T47D sc, 250 mg/kg subcutaneous once a week. Here is the method: Female Balb/c nude mice were used for MCF-7 and T47D tumor subcutaneous xenograft studies. At least one day before tumor cell implantation, estrogen pellets (0.18 mg, 17β-Estradiol, 60-day release, Innovative Research of America, Sarasota, FL, USA) were implanted subcutaneously. Each mouse was subcutaneously injected with 1 × 10^7 MCF-7 (ECACC) or T47D cells in the right flank, and tumor growth was monitored. The long diameter (a) and the short diameter (b) of the tumor were measured using a caliper, and the tumor volume was calculated using the following formula: V = 0.5 × a × b^2. […] Tumor volumes were evaluated twice per week. Treatment tolerability was assessed by body weight measurements and frequent observation for clinical signs of treatment-related adverse effects.
(§1) Statistical and graphical presentations were performed using IDBS XLfit and GraphPad Prism 9. For cell proliferation assays, the IC50 was calculated by fitting a dose–response curve using a nonlinear regression model with a log(inhibitor) vs response curve fit. […] P-values < 0.05 were considered statistically significant.

Test [2] relates to intracranial MCF-7 tumors. Put plainly: Intracranial MCF-7 tumor model. Type of test: in vivo, mouse. As for the experimental part: Female NPG mice were used for the intracranial MCF-7 tumor model. Three days before tumor cell implantation, estrogen pellets (0.72 mg, 17β-Estradiol, 60-day release, Innovative Research of America, Sarasota, FL, USA) were implanted subcutaneously. Each mouse was intracranially injected with 2 × 10^6 MCF-7 (ATCC) cells. […] Survival of mice was evaluated until Day 60. Mice were euthanized with weight loss exceeding 20% or moribund. On Day 60, all the mice remaining alive were euthanized. Before euthanasia, the mice were perfused with 4% paraformaldehyde and the brain tissues were collected for H&E staining using A[…] (Leica, Wetzlar, Germany).
as §1

Take `CC/C(=C(\c1ccc(O)cc1)c1ccc(OCCN(C)C)cc1)c1ccccc1` [4-OH-tamoxifen]: in test [1] (EFM-19 and HCC1500), the AGR3 transcription entry is listed as “significant increase”.
With `C[C@]12CC[C@@H]3c4ccc(O)cc4C[C@@H](CCCCCCCCC[S+]([O-])CCCC(F)(F)C(F)(F)F)[C@H]3[C@@H]1CC[C@@H]2O` (stereo partly shown) [Fulvestrant], on ERα Y537S mutant, the “ERα degradation assay Dmax [% Ful.]” value is 87.09 % Ful and the “ERα degradation assay Dmax [% Veh.]” value is 26.38 % Veh. In addition, in test [1] (T47D, EFM-19, and HCC1500), the “AGR3 and GREB1 transcription” value is given as “significantly downregulated”. Further, the TGI with T47D subcutaneous tumors turned out to be 48.35%. For the same compound, the median survival time in test [2] (250 mg/kg subcutaneous once a week) worked out at 27 days. Also, the “tumor cell infiltration in brain tissues (H&E)” value in test [2] (Fulvestrant 250 mg/kg, SCR-6852 3 mg/kg) was “significant tumor cells infiltration”.

Source of the values: publication PMC10426190 (Breast Cancer Research : BCR, 2023).
